Source: patent publication US4703039A, “Method of producing biologically active molecules having extended life time” (New England Deaconess Hospital Corporation, priority 1985, dated 1987)
Ends that are not written are not given here.

Columns and labels:
[1] = target: T1, ADP-modified human platelets (von Willebrand factor binding site) (Homo sapiens, UniProt P05106+P08514); assay: Inhibition of 125I-labelled von Willebrand factor binding to ADP-treated human platelets; details: 10^8 human platelets/0.55 ml treated with 5 mM of ADP, 14 μg 125I-von Willebrand factor, FIG. 8
T1 construct: 10^8 human platelets/0.55 ml treated with 5 mM of ADP; endogenous in cells; host or cells: human platelets treated with ADP
T1 sequence (P08514 32-887 limits assumed): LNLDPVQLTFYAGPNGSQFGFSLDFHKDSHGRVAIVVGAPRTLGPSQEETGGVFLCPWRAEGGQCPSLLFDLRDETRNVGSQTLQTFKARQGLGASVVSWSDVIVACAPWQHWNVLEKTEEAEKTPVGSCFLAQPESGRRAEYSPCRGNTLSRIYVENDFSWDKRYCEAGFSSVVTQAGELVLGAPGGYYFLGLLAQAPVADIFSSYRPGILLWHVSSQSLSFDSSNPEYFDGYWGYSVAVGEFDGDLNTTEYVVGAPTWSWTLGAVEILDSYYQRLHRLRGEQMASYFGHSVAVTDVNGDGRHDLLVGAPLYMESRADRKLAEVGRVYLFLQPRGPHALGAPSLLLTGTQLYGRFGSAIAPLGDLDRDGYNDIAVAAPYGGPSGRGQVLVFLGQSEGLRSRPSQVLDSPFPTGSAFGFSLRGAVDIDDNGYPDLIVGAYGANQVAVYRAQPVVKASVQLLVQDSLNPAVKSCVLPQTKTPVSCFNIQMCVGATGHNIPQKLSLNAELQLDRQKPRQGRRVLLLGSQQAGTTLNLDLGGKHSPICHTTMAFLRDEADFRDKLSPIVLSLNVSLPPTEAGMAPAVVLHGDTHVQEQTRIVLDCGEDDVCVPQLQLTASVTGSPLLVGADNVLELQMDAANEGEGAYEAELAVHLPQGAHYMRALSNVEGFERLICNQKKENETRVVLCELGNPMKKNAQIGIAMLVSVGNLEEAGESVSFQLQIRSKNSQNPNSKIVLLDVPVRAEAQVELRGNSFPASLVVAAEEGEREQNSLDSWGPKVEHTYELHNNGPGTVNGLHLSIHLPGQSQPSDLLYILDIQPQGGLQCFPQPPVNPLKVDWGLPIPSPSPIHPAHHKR
T1 sequence (P08514 891-1039 partner limits assumed): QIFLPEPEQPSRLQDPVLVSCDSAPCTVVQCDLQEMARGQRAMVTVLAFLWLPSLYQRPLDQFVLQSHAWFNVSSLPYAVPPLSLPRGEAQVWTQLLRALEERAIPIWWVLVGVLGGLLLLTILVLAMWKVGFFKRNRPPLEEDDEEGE
T1 sequence (P05106 27-788): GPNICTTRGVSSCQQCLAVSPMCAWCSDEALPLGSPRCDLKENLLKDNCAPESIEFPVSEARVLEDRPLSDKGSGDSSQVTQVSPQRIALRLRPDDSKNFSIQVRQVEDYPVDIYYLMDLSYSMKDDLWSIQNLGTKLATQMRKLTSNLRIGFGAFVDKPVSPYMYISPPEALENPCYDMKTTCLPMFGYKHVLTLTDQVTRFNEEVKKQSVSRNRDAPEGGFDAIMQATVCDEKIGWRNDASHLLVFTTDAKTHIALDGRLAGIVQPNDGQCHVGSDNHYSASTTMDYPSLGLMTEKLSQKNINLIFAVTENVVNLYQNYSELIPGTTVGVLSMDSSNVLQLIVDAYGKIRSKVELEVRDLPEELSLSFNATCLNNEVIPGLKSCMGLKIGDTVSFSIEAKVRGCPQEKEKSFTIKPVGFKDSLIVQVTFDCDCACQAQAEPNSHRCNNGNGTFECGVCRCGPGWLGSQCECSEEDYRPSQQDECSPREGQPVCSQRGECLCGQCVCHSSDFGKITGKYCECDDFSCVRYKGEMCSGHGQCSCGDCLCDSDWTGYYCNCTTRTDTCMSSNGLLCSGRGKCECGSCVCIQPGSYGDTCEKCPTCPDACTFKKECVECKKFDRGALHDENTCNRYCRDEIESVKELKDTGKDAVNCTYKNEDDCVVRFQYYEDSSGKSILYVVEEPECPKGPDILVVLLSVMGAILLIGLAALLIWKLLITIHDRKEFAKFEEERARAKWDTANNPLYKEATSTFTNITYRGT
Description: This Example illustrates that a peptide can be used to inhibit binding of von Willebrand factor to ADP-treated human platelets. FIG. 8 illustrates the level of inhibition of ^125 I-labelled von Willebrand factor or fibrinogen binding to ADP-modified human platelets by incubation with a synthetic dodecapeptide

[2] = target: T2, ristocetin-modified human platelets (von Willebrand factor binding site) (Homo sapiens, UniProt P07359); assay: Inhibition of 125I-labelled von Willebrand factor binding to ristocetin-treated human platelets; details: human platelets treated with 0.6 mg/ml ristocetin, FIG. 8
T2 construct: von Willebrand factor to human platelets treated with 0.6 mg/ml ristocetin; endogenous in cells; host or cells: human platelets treated with ristocetin
T2 sequence (P07359 17-652): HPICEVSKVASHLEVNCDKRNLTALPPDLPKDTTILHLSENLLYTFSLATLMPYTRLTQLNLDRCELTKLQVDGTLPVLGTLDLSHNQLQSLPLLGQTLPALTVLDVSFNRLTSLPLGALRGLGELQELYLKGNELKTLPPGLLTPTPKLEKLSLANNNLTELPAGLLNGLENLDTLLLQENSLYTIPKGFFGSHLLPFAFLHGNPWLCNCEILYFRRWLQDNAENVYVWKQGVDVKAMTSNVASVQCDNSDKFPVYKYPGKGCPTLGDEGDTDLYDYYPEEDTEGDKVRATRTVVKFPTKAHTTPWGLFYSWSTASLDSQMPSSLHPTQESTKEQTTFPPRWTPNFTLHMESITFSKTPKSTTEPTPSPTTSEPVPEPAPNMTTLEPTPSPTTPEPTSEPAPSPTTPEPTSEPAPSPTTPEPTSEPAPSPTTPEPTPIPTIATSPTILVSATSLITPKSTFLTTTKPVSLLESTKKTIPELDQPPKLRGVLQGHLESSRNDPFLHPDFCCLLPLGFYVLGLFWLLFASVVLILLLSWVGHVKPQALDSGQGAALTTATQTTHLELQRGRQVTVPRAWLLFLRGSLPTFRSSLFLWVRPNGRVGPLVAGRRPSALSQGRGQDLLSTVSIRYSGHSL
T2 sequence (P13224 26-206 partner): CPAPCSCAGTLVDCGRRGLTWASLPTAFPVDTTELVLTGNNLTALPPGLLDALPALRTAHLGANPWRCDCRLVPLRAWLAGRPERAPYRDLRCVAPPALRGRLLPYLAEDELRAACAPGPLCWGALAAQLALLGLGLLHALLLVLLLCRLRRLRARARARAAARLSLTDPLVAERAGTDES
T2 sequence (P14770 17-177 partner): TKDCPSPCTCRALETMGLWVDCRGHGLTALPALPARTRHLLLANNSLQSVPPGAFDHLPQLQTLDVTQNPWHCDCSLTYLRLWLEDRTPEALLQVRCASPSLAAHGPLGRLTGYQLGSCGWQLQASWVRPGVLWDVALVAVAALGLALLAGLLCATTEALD
T2 sequence (P40197 17-560 partner): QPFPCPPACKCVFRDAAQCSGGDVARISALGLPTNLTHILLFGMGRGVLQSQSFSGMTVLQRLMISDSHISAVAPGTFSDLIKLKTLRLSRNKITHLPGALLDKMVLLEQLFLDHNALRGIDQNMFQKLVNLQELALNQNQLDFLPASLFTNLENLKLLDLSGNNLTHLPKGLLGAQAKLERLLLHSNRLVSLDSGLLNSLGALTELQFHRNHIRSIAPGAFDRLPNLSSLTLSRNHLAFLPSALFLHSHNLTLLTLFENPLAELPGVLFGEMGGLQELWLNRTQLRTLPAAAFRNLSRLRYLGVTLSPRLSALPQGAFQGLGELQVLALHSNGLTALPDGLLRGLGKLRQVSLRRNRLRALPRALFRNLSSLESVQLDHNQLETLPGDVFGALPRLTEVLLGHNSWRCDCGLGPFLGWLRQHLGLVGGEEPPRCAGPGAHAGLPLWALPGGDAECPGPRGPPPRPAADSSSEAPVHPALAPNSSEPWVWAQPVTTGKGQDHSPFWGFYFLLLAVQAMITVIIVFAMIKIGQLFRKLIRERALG

[3] = tested on: ADP-modified human platelet receptor site for fibrinogen; assay: Inhibition of 125I-fibrinogen binding to ADP-treated human platelets; details: 10^8 human platelets/0.55 ml treated with 5 mM of ADP, FIG. 8
Description: FIG. 3 is a graph showing that the inhibitory effect of the same conjugate is concentration dependent. In this experiment, human platelets were treated with ADP and a variety of concentrations of the conjugate were added to affect inhibition of ^125 I-fibrinogen binding to the platelets. As the concentration of the conjugate increases, inhibition of binding goes from 0 to almost 100%, showing the effectiveness of the conjugate.

[4] = tested on: hemostatic plug formation; assay: In vivo rabbit superior mesenteric artery perfusion, bleeding time; details: FIG. 11
Description: This Example illustrates an in vivo model of mesentric artery perfusion in a rabbit. The experimental model employed involved anesthesized white New Zealand rabbits, weighing about 2.0 kg, and fed standard diet. The right femoral artery was canulated for blood pressure measurement and blood sampling. A midline abdominal incision was made to exteriorize the small intestine, the mesentery was draped over a microscope table, and superfused continuously with saline at 37° C. […] Small arteries of 100-200 μm external diameter were cut one third across with a surgical blade at the junction of the mesentery with the intestine. The time in seconds was determined from incision until the bleeding was arrested by a spontaneously formed hemostatic plug. Infusions of selected agents tested for their effects on platelet activation were through the mesenteric cannula with a constant volume Harvard pump at a flow rate of 0.11 ml/min. Three animals were used for each dose unless otherwise indicated. Blood pressure, hematocrit, and platelet count were measured prior to and after bleeding time determinations.

[5] = tested on: ADP-treated human platelets; assay: Aggregation of ADP-treated human platelets washed free of fibrinogen, by conjugates (percent transmission); format: cell-based; details: FIG. 6 curves b and c
From the text: FIG. 5 illustrates the effectiveness of the divalent conjugate on promoting this inhibition reaction. Human platelets were washed free of fibrinogen and other binding proteins and then treated with ADP. […] The lower curve on FIG. 5 is a control of the identical conjugate with a peptide bound to the human serum albumin that is […] to the receptor site.
This Example illustrates that a polyvalent conjugate can also be manufactured and used in an aggregation reaction. […] Multiple copies of a different peptide, residues 397-411 of the gamma chain of fibrinogen bound to a cysteine residue were conjugated to a human serum albumin backbone. Curve a on FIG. 6 illustrates the aggregation of ADP-treated human platelets by this polyvalent conjugate. […] Curves b and c on FIG. 6 are controls illustrating the effectiveness of the conjugate as an artificial fibrinogen. In Curve b, the "model molecule" was first mixed with Fab fragments of rabbit antibody which had been made against the terminal portion of the gamma chain of human fibrinogen. […] This is evident from the almost flat response shown as Curve b on FIG. 6.
The alternate control, inhibiting the artificial fibrinogen reaction using the peptides themselves, is shown in Curve c. In this reaction, the platelets were mixed with unconjugated peptides and then the conjugate was used in attempt to aggregate the platelets.

HHLGGAKQAGDV [dodecapeptide, H2 N-His-His-Leu-Gly-Gly-Ala-Lys-Gln-Ala-Gly-Asp-Val-C OOH]
inhibition of 125I-labelled von Willebrand factor binding [1]: substantial binding inhibition | inhibition of 125I-labelled von Willebrand factor binding [2]: does not inhibit | inhibition of 125I-labelled fibrinogen binding [3]: substantial binding inhibition

HHLGGAKQAGDV [inhibitory peptide]
bleeding time relative to its original time (diluent infusion) ([4]; infusion through the mesenteric cannula): more than double its original time | time to resume original bleeding time after peptide infusion is replaced by diluent ([4]; said to show clearance of the peptide): approximately 20 minutes

unconjugated peptides: the peptides of the polyvalent conjugate themselves, unconjugated (gamma chain residues 397-411 with cysteine)
inhibition of platelet aggregation induced by the polyvalent conjugate (artificial fibrinogen) [5]: aggregation reaction by the artificial fibrinogen conjugate is inhibited
